Experimental data: patent US20230075765A1, “PYRROLO[2,3-D]PYRIMIDINE DERIVATIVE TARGETING EGFR MUTATION, AS WELL AS THE PREPARATIVE METHOD AND THE USE THEREOF” (WEST CHINA HOSPITAL, SICHUAN UNIVERSITY, priority 2020, published 2023)
Where two headings read alike, the source gives them in different places.

Columns and labels:
Type in all cases: cell-based, human
A549 cells = experiment: Inhibition of cell proliferation, CCK8 method; conditions: A549 lung adenocarcinoma cells, 48 h, read-out: Inhibitory activity (IC50) against A549
Description: (§1) Compounds 1-9 of the present invention were respectively weighed and dissolved in 1 ml of dimethyl sulfoxide (DMSO), to prepare a 10 mM drug solution, which was stored in a refrigerator at −20° C. in the dark after packaging. The stock solution was diluted with the corresponding culture medium to the required concentration just before the experiment.
(§2) HBE cells and BEAS-2B cells are normal lung bronchial epithelial cell lines, and both cells were cultured in DMEM high glucose medium (supplemented with 10% fetal bovine serum and 1% double antibody) to the logarithmic growth phase; H460 cells, A549 cells, H1975 cells and HCC827 cells are lung cancer cell lines, and all of them were cultured in RPMI1640 medium (supplemented with 10% fetal bovine serum and 1% double antibody) to the logarithmic growth phase. Among them, H1975 cells and HCC827 cells are EGFR mutant cells.
(§3) When the cells were cultured to 90% of the growth density, the cells were digested with 0.25% trypsin to prepare a single cell suspension. The cells were counted, and then seeded in a 96-well plate at a density of 5000 cells/well, 100 μl for each well. The culture plate was moved into a CO2 incubator and incubated for 24 h at 37° C. and 5% CO2. Compounds at different concentrations were added to each well, 5 replicate wells for each concentration, and the cells were treated with the compounds for 48 hours. CCK8 detection reagent was added to each well according to the operation manual, and then the plate was further incubated for 1 h before terminating the culture. 450 nm wavelength was chosen, and the absorbance value of each well was adjusted on the microplate ELISA analyzer. The result was recorded. […] was taken as the horizontal axis, and absorbance as the vertical axis to plot a curve. The half inhibitory concentration (IC50) was calculated by Bliss method. Each experiment was repeated at least 3 times.
(§4) Normal lung cell lines and different lung cancer cell lines were selected for experiments. Amongst, the compound with high anti-cancer activity was screened, whose anti-tumor activity was further studied.

BEAS-2B cells = experiment: Inhibition of cell proliferation, CCK8 method; conditions: BEAS-2B normal bronchial epithelial cells, 48 h, read-out: Inhibitory activity (IC50) against BEAS-2B
Description: as §1, §2, §3, §4

H460 cells = experiment: Inhibition of cell proliferation, CCK8 method; conditions: 48 h, read-out: Inhibitory activity (IC50) against H460
Description: as §1, §2, §3, §4

HCC827 cells [1] = experiment: Inhibition of cell proliferation, CCK8 method; conditions: HCC827 EGFR mutant cells, 48 h, CCK8, read-out: Inhibitory activity (IC50) against HCC827
Description: (§5) The stock solution was diluted with the corresponding culture medium to the required concentration just before the experiment.
as §2
as §3, with “The” for “When the cells were cultured to 90% of the growth density, the cells were digested with 0.25% trypsin to prepare a single cell suspension. The”
(§6) Normal lung cell lines and different lung cancer cell lines were selected for experiments.

H1975 cells [2] = experiment: Apoptosis, Annexin V-FITC/PI double staining, flow cytometry; conditions: 18 h (control 9.2)
Description: (§7) Apoptosis was detected by Annexin V-FITC/PI double staining method. A variety of different cells in the logarithmic growth phase were inoculated evenly in a 6-well plate at a concentration of 1×10^6 cells/well, 2 ml for each well, and then incubated overnight. Then, different compounds were added, and each compound was set different concentrations. After 18 h, the cells were collected with 0.25% trypsin without EDTA and washed twice with PBS solution. Then, the cells were stained by the apoptosis detection kit according to the instructions, and analyzed by flow cytometry.
(§8) In the experiment, human lung cancer cells HCC827 cells and H1975 cells were selected as the detection system. The control group was a blank control (DMSO). The test concentrations of the compounds were 0.5 μM and 5 μM. After treatment with the compounds for 18 h, the flow cytometry was used for detection. In the apoptosis result graph, the cells in quadrant E1 are necrotic cells, the cells in quadrant E2 are late apoptotic cells, the cells in quadrant E3 area represent live cells, and the cells in quadrant E4 are early apoptotic cells.

HCC827 cells [3] = experiment: as above; conditions: 18 h (control 10.8)
Description: as §7, §8

H1975 cells [4] = experiment: Cell cycle, PI staining, flow cytometry; conditions: 18 h (control 30.25)
Description: (§9) A variety of different cells in the logarithmic growth phase were inoculated evenly in a 6-well plate at a concentration of 1×10^6 cells/well, 2 ml for each well, and then incubated overnight. Then, different compounds were added, and each compound was set different concentrations. After 18 h, the cells were collected, resuspended in PBS, and centrifuged to remove the supernatant, to which was then added 0.5 ml of pre-cooled 75% absolute ethanol dropwise, followed by vortexing to mix the cells and standing overnight at 4° C. The solution was centrifuged at 1000 rpm/min for 4 min, and the supernatant was discarded. Propidium iodide staining solution was prepared by using 5.6 ml staining buffer, 210 μl propidium iodide staining solution (25×), and 56 μl RNaseA (2.5 mg/ml). 0.4 ml of propidium iodide staining solution was added to each tube to resuspend the cells, and then incubated for 30 min at room temperature in the dark. The cell suspension was gently pipetted to mix, filtered into a flow tube, and stored in the dark at 4° C. The cells were detected on the flow cytometer within 1 h.

HCC827 cells [5] = experiment: Cell cycle, PI staining, flow cytometry; conditions: 18 h (control 33.66)
Description: as §9

H1975 cells [6] = experiment: Inhibition of cell proliferation, CCK8 method; conditions: H1975 EGFR mutant cells, 48 h, read-out: Inhibitory activity (IC50) against H1975
Description: as §5, §2
as §3, with “The” for “When the cells were cultured to 90% of the growth density, the cells were digested with 0.25% trypsin to prepare a single cell suspension. The”
as §6

[7] = tested on: normal cells and different lung cancer cell lines; experiment: Inhibition of cell proliferation, CCK8 method, comparison in words over the whole cell panel; conditions: BEAS-2B, HBE, H460, A549, H1975, HCC827; CCK8, 48 h
Description: as §1, §2, §3, §4

HBE cells = experiment: Inhibition of cell proliferation, CCK8 method; conditions: HBE normal bronchial epithelial cells, 48 h, CCK8; read-out: Inhibitory activity (IC50) against HBE
Description: as §5, §2
as §3, with “The” for “When the cells were cultured to 90% of the growth density, the cells were digested with 0.25% trypsin to prepare a single cell suspension. The”
as §6

[8] = H460 large cell lung cancer cells

| IC50 (A549 cells; Homo sapiens) [µM] | IC50 (H460 cells; Homo sapiens, NCI-H460, H460 large cell lung cancer cells) [µM] | IC50 (HCC827 cells [1]; Homo sapiens) [µM] | Structure (SMILES) | IC50 (BEAS-2B cells; Homo sapiens) [µM] | Total apoptosis rate (%) (H1975 cells [2]; 0.5 μM) | Total apoptosis rate (%) (H1975 cells [2]; 5 μM) | Total apoptosis rate (%) (HCC827 cells [3]; 0.5 μM) | Total apoptosis rate (%) (HCC827 cells [3]; 5 μM) | S phase (%) (H1975 cells [4]; 0.5 μM) | S phase (%) (H1975 cells [4]; 5 μM) | S phase (%) (HCC827 cells [5]; 0.5 μM) | S phase (%) (HCC827 cells [5]; 5 μM) | IC50 (A549 cells) [µM] | IC50 (BEAS-2B cells) [µM] | IC50 (H460 cells; [8]) [µM] | IC50 (H1975 cells [6]) [µM] | IC50 (HCC827 cells [1]) [µM] | inhibitory effect on different cell lines (in words) [7] | IC50 (HBE cells) [µM] |
| --- | --- | --- | --- | --- | --- | --- | --- | --- | --- | --- | --- | --- | --- | --- | --- | --- | --- | --- | --- |
| 2.01 | 5.68 | 0.11 | C=CC(=O)Nc1cccc(Oc2nc(Nc3ccc(N4CCN(C)CC4)c(F)c3)nc3[nH]ccc23)c1 [Avitinib, reference compound] | 4.11 | 9.5 | 11.7 | 30.3 | 35.4 | 3.74 | 13.19 | 9.09 | 10.83 |  |  |  |  |  |  |  |
|  |  |  | C=CC(=O)Nc1cccc(Oc2nc(Nc3ccc(N4CCN(C)CC4)c(F)c3)nc3[nH]ccc23)c1 [Compound 1] |  |  |  |  |  |  |  |  |  | 1.92 | 3.68 | 6.02 | 2.06 | 0.1 | basically the same as that of the positive control |  |
|  |  |  | C=CC(=O)Nc1cccc(Oc2nc(Nc3ccc(N4CCN(C)CC4)cc3)nc3[nH]ccc23)c1 [Compound 3] |  |  |  |  |  |  |  |  |  | 9.92 | 23.8 | 36 | 22 | 0.24 | lower | 28.1 |
